Source: US20220098197A1, “SALTS OF HETEROCYCLIC COMPOUND AND USE THEREOF” (priority 2019, published 2022)
Values after ≈ are worked out from the molar mass of the structure shown. Values joined by “and” are separate entries in the source; they are usually repeats but may differ in a detail not shown here. Identical values can stand only once. Like-named read-outs stand apart in the source and are kept apart here.

Experiments:
[1] = Dissolution test of capsules (Chinese Pharmacopoeia 2015, General Method 0931, 2nd Method); type: physicochemical; details: for Dissolution rate, Mean (%), 5 min / Dissolution rate, Mean (%), 10 min / Dissolution rate, Mean (%), 15 min / Dissolution rate, Mean (%), 20 min / Dissolution rate, Mean (%), 30 min / Dissolution rate, Mean (%), 45 min: mean of 6 capsules; for Dissolution rate, Mean (%), 5 min / Dissolution rate, Mean (%), 10 min / Dissolution rate, Mean (%), 15 min / Dissolution rate, Mean (%), 20 min / Dissolution rate, Mean (%), 30 min / Dissolution rate, Mean (%), 45 min / Dissolution rate, 5 min / Dissolution rate, 10 min / Dissolution rate, 15 min / Dissolution rate, 20 min / Dissolution rate, 30 min / Dissolution rate, 45 min: purified water, 50 rpm; for Dissolution rate, 5 min / Dissolution rate, 10 min / Dissolution rate, 15 min / Dissolution rate, 20 min / Dissolution rate, 30 min / Dissolution rate, 45 min: single capsules 1-6, hydrate
Experimental: The hydrates obtained hereinabove and the compound of formula A were tested for dissolution rate. The test method was as follows.
Step 1: Pretreating Raw Materials
The samples were passed through a 100 mesh sieve.
Step 2: Blending Raw Materials with Auxiliary Materials
The raw materials and lactose were weighed according to the prescription, mixed in equal increment, sieved and mixed.
The capsules were filled via a capsule filling plate and sealed. The difference of the filling amount was controlled to ±5%. The appearance was inspected to ensure that the sealing was correct and there was no split or deformation.
Test method: dissolution test method (Chinese Pharmacopoeia, edited in 2015, Chapter 4, General Method 0931, the 2nd Method)
Dissolution medium: aqueous solution
Specific test method: The sample was tested following the dissolution test method (Chinese Pharmacopoeia, edited in 2015, Chapter 4, General Method 0931, the 2nd Method). 900 ml aqueous solution was used as the dissolution medium. The speed was 50 rpm. The test was performed in accordance with the method. […] After filtration, the filtrate was precisely measured and quantitatively diluted with the dissolution medium to prepare a solution containing about 10 μg of sample per 1 ml. The absorbance was measured by at 231 nm by UV-Vis spectrophotometry (Chinese Pharmacopoeia, edited in 2015, Chapter 4, General Method 0931, the 2nd Method). An appropriate amount of the control sample was taken, weighed accurately, dissolved in dissolution medium and diluted quantitatively to prepare a solution containing about 10 μg of the sample per 1 ml, and then measured in the same way. The amount of dissolution per capsule was calculated.

[2] = Stability test (influencing factors: light, high temperature, high humidity); type: physicochemical; details: for stability under high temperature and high humidity conditions (in words): 60° C., 92.5% RH
Experimental: Test process: An appropriate amount of each test sample was placed on a clean watch glass without a lid and then placed under the conditions of light 4500 lx±500 lx, high temperature of 60° C., high humidity of 92.5% RH for 5 days and 10 days, respectively. The properties and related substances were determined and the results were compared with the results at day 0 to observe the stability.
The test method for related substances was as follows.
Preparation of test sample solution: About 10 mg of each test sample was placed in a 10 ml volumetric flask, and 50% acetonitrile aqueous solution was added to dissolve sample, and diluted to the mark, shaken well, and filtered to obtain the test sample solution. A precise amount of 10 μl of the test sample solution was taken and injected according to the above chromatographic method, and the maximum single impurity and total impurity were calculated according to the area normalization method.

neutrophils [3] = test: PGD2-induced neutrophils migration, Boyden chamber assay (Example 1); type: cell-based, mice; details: pretreatment CT-NA 1 and 10 μM (p<0.01) or OC459; PGD2 1 μM; 4 hrs
Experimental: The mice were intragastrically administered glycogen (1.5%) at the dose range of 20 ml/kg of body weight. 4 hrs later, the mice were euthanized to isolate neutrophils from the peritoneal lavage. The effect of CT-NA on neutrophils migration was detected by using the Boyden chamber assay kit (3 μm pore size). PGD2 was used as a chemoattractant because the activated PGD2/CRTH2 receptors promoted the migration of neutrophils. Initially, the isolated neutrophils (4×10^5) were diluted in 100 μL HBSS and allowed to migrate toward PGD2 (0.1, 1 and 10 μM) for 4 hrs to find out the suitable PGD2 concentration. Then, the isolated neutrophils (4×10^5) were pretreated with CT-NA (1 and 10 μM), and their migration to PGD2 (1 μM) was evaluated by counting the migrated neutrophils. Moreover, another potent CRTH2 inhibitor OC459 was used to countercheck the outcomes of CT-NA.

neutrophils [4] = test: PGD2-induced neutrophils migration in vitro, Boyden chamber (Example 2); type: cell-based, mice; details: pretreatment CT-NA 1 μM or 10 μM, OC459 10 μM; 4 hrs; P<0.01
Experimental: The method for isolating neutrophils and testing effect of CT-NA on neutrophils migration was briefly described as follows. 1.5% glycogen was injected intragastrically into mice at a dose of 20 ml/kg body weight. 4 hrs later, the mice were euthanized to isolate neutrophils from the peritoneal lavage. Effect of CT-NA on the migration of neutrophils was detected using the Boyden chamber assay kit (3 um pore size, Billerica, Mass.). PGD2 was used as a chemoattractant because the activated PGD2/CRTH2 receptors promoted the neutrophils migration. Firstly, the isolated neutrophils were inoculated at 4×10^5 cells/ml into the upper side of well of the Boyden chamber, and the lower chamber contained different concentrations of PGD2 (0.1, 1 and 10 μM), and the neutrophils were allowed to migrate towards PGD2 for 4 hrs at 37° C. in order to find out the suitable PGD2 concentration. After evaluation of the suitable PGD2 concentration, the migration of neutrophils pretreated with CT-NA (1 and 10 μM) and OC459 (10 μM), another effective CRTH2 inhibitor, toward PGD2 (1 μM) was assessed for 4 hrs.

[5] = Solubility test in media with different pH; type: physicochemical; details: for solubility: thermodynamic from solid, room temperature of 25° C.
Experimental: The hydrates obtained as above and the compound of formula A were tested for solubility in solutions with different pH. The test method was as follows.
1.1. Preparation of the Media with Different pH
pH1.0 medium: 9.0 mL of hydrochloric acid was diluted to 1000 mL with water and shaken well to obtain the medium.
pH4.5 medium: 6.80 g of potassium dihydrogen phosphate (KH2PO4) was dissolved in water and diluted to 1000 mL, adjusted to pH4.5 with phosphoric acid or sodium hydroxide, and shaken well to obtain the medium.
pH6.8 medium: 55.38 g of disodium hydrogen phosphate (Na2HPO4.12H2O) and 4.77 g of citric acid (C6H8O7.H2O) were dissolved in water and diluted to 1000 mL, adjusted to pH6.8 with phosphoric acid or sodium hydroxide, and shaken well to obtain the medium.
Pure water medium: purified water.
Test method: To a certain amount of test samples, the media with different pH were added gradually, respectively. The mixture was shaken continuously until it reached saturation. The weighing amount of the test sample and the amount of solvent were recorded and the concentration when the sample was dissolved was calculated.

[6] = high temperature 60° C., Day 10
[7] = light condition 4500 lx±500 lx, Day 5
[8] = light condition 4500 lx±500 lx, Day 10

Row | Compound | stability under high temperature and high humidity conditions (in words) ([2]; 5 and 10 days) | maximum single impurity % ([2]; Day 0) | property ([2]; Day 0) | total impurity % ([2]; Day 0) | maximum single impurity % ([2]; high humidity 92.5% RH, Day 5) | property ([2]; high humidity 92.5% RH, Day 5) | total impurity % ([2]; high humidity 92.5% RH, Day 5) | maximum single impurity % ([2]; high humidity 92.5% RH, Day 10) | property ([2]; high humidity 92.5% RH, Day 10) | total impurity % ([2]; high humidity 92.5% RH, Day 10) | maximum single impurity % ([2]; high temperature 60° C., Day 5) | property ([2]; high temperature 60° C., Day 5) | total impurity % ([2]; high temperature 60° C., Day 5) | maximum single impurity % [2, 6] | property [2, 6] | total impurity % [2, 6] | maximum single impurity % [2, 7] | property [2, 7] | total impurity % [2, 7] | maximum single impurity % [2, 8] | other results
1 | CN([C@@H]1CCc2c(CC(=O)[O-])c3cccnc3n2C1)S(=O)(=O)c1ccc(F)cc1.[K+] [Potassium salt hydrate] | relatively stable | 0.34% | white powder | 0.49% | 0.34% | Molten solid | 0.45% | 0.31% | colorless liquid | 0.48% | 0.34% | white powder | 0.45% | 0.33% | white powder | 0.45% | 0.33% | light yellow powder | 0.72% | 0.33% | Dissolution rate, Mean (%), 5 min [1]: 31.6%; Dissolution rate, Mean (%), 10 min [1]: 74.1%; Dissolution rate, Mean (%), 15 min [1]: 83.0%; Dissolution rate, Mean (%), 20 min [1]: 85.6%; Dissolution rate, Mean (%), 30 min [1]: 87.0%; Dissolution rate, Mean (%), 45 min [1]: 86.9%; Dissolution rate, 5 min [1]: 30.7% and 28.9% and 24.1% and 34.9% and 41.7% and 29.6%; Dissolution rate, 10 min [1]: 80.4% and 53.3% and 81.5% and 72.3% and 77.6% and 79.2%; Dissolution rate, 15 min [1]: 83.7% and 80.8% and 87.4% and 84.4% and 79.5% and 82.1%; Dissolution rate, 20 min [1]: 86.4% and 83.1% and 89.2% and 87.8% and 83.0% and 84.1%; Dissolution rate, 30 min [1]: 86.9% and 86.7% and 90.2% and 87.4% and 85.0% and 85.6%; Dissolution rate, 45 min [1]: 85.6% and 86.7% and 91.3% and 87.0% and 85.8% and 84.9%; property [2, 8]: light yellow powder; total impurity % [2, 8]: 0.88%
2 | CN([C@@H]1CCc2c(CC(=O)[O-])c3cccnc3n2C1)S(=O)(=O)c1ccc(F)cc1.[Li+] [Lithium salt hydrate] | relatively stable | 0.59% | white powder | 0.87% | 0.55% | white powder | 0.72% | 0.56% | white powder | 0.76% | 0.56% | white powder | 0.79% | 0.56% | white powder | 0.78% | 0.61% | light yellow powder | 0.93% | 0.78% | Dissolution rate, Mean (%), 5 min [1]: 34.6%; Dissolution rate, Mean (%), 10 min [1]: 67.4%; Dissolution rate, Mean (%), 15 min [1]: 79.8%; Dissolution rate, Mean (%), 20 min [1]: 85.3%; Dissolution rate, Mean (%), 30 min [1]: 85.2%; Dissolution rate, Mean (%), 45 min [1]: 85.7%; Dissolution rate, 5 min [1]: 36.5% and 42.6% and 34.7% and 34.4% and 35.6% and 23.9%; Dissolution rate, 10 min [1]: 78.7% and 75.4% and 74.4% and 60.4% and 74.8% and 40.4%; Dissolution rate, 15 min [1]: 83.6% and 82.7% and 83.4% and 81.4% and 81.3% and 66.1%; Dissolution rate, 20 min [1]: 84.3% and 87% and 85.9% and 84.9% and 85.5% and 84.4%; Dissolution rate, 30 min [1]: 85.9% and 85.2% and 85.8% and 84.6% and 84.4% and 85.3%; Dissolution rate, 45 min [1]: 85.5% and 85.6% and 88.3% and 84.2% and 85.3%; property [2, 8]: light yellow powder; total impurity % [2, 8]: 1.21%
3 | Cc1c(Cc2ccc3ccccc3n2)c2cc(F)ccc2n1CC(=O)O [OC459, reference compound] | – | – | – | – | – | – | – | – | – | – | – | – | – | – | – | – | – | – | – | – | PGD2-induced neutrophils migration (neutrophils [3]): inhibited; neutrophils migration induced by 1 μM PGD2 (neutrophils [4]): significantly reduced
4 | CN([C@@H]1CCc2c(CC(=O)O)c3cccnc3n2C1)S(=O)(=O)c1ccc(F)cc1 (racemic) [Compound A] | relatively stable | 0.08% | white powder | 0.32% | 0.08% | white powder | 0.31% | 0.07% | white powder | 0.26% | 0.07% | white powder | 0.24% | 0.08% | white powder | 0.25% | 4.66% | light yellow powder | 5.28% | 15.02% | water solubility at different pH (comparison in words) ([5]; pH 1.0, 4.5, 6.8 and purified water): poor water solubility; solubility ([5]; pH 1.0 medium (dilute hydrochloric acid), pH 1, simulated gastric fluid, pH1.0 medium, read-out: Solubility, pH = 1.0): 1.25 µg/mL (≈ 2.99 µM); solubility ([5]; pH 4.5 medium (potassium dihydrogen phosphate solution), pH 4.5, aqueous buffer, pH4.5 medium, read-out: Solubility, pH = 4.5): 1.67 µg/mL (≈ 4 µM); solubility ([5]; pH 6.8, aqueous buffer, pH6.8 medium, read-out: Solubility, pH = 6.8): 2 µg/mL (≈ 4.79 µM); solubility ([5]; purified water, read-out: Solubility, purified water): 2 µg/mL (≈ 4.79 µM); solubility in water (in words) ([5]; water): insoluble in water; dissolution rate (in words) ([1]; same method, aqueous dissolution medium): basically zero; stability under light condition (in words) ([2]; light 4500 lx±500 lx, 5 and 10 days): degrades significantly; property [2, 8]: light yellow powder; total impurity % [2, 8]: 15.25%
